# Source: patent US11214803B2, “Modulators of YAP1 expression” (Ionis Pharmaceuticals, Inc., priority 2019, dated 2022)
# Strand notation (5' to 3'): a small letter for the sugar, then the base; units joined by * are phosphorothioate-linked, units joined directly phosphodiester-linked; [ ] holds rarer units or linkages, { } end groups; capitals alone tell only the bases. k = constrained ethyl (cEt); [5mC] = 5-methylcytosine; d = 2'-deoxy (DNA)
# Test system: Yap1 mRNA
# Test: Antisense inhibition of human Yap1 in A-431 cells by cEt gapmers, single dose (Example 3, RTS36584)
# Type: cell-based
# Conditions: Table 8; A-431 cells, 5,000 cells per well, free uptake, 2,000 nM, approximately 48 hours; RTS36584; normalized to RIBOGREEN; Yap1 mRNA relative to untreated control cells
# Outline: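 Single-dose free-uptake screen of 3-10-3 cEt gapmers in A-431 cells at 2,000 nM over about 48 h. Values are % untreated control Yap1 mRNA.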
row,Substance,YAP1 (% UTC)
1,958354 (antisense kG*kT*k[5mC]*dG*dG*dT*d[5mC]*dT*d[5mC]*d[5mC]*dG*dA*dG*kT*k[5mC]*k[5mC]) [Compound 958354],31 % UTC
2,958421 (antisense k[5mC]*kT*k[5mC]*d[5mC]*dG*dT*dG*dG*dT*dG*dA*dT*d[5mC]*k[5mC]*k[5mC]*kA) [Compound 958421],13 % UTC
3,958358 (antisense kG*kG*k[5mC]*dG*dG*d[5mC]*dT*dT*dG*dA*dA*dG*dA*kA*kG*kG) [Compound 958358],34 % UTC

# Same assay, conditions: Table 9; A-431 cells, 5,000 cells per well, free uptake, 2,000 nM, approximately 48 hours; RTS36584; normalized to RIBOGREEN; Yap1 mRNA relative to untreated control cells
row,Substance,YAP1 (% UTC)
1,958776 (antisense kG*kG*kT*dA*d[5mC]*dT*d[5mC]*dT*d[5mC]*d[5mC]*dT*dT*d[5mC]*kA*kG*kA) [Compound 958776],94 % UTC
2,958666 (kG*kA*kA*dA*dA*dG*dG*dG*d[5mC]*dA*dA*dT*d[5mC]*kA*kT*kA; antisense) [Compound 958666],52 % UTC
3,958676 (kG*kA*kA*d[5mC]*dT*dT*dA*dG*dT*dT*d[5mC]*d[5mC]*d[5mC]*kT*kA*kT; antisense) [Compound 958676],34 % UTC
4,958436 (antisense kT*k[5mC]*k[5mC]*d[5mC]*dT*dT*dG*dA*d[5mC]*dG*dG*dA*dG*kG*k[5mC]*k[5mC]) [Compound 958436],124 % UTC
5,958591 (kT*k[5mC]*kA*d[5mC]*dA*dG*dT*dA*d[5mC]*dT*dG*d[5mC]*dT*kA*k[5mC]*kA; antisense) [Compound 958591],38 % UTC

# Same assay, conditions: Table 10; A-431 cells, 5,000 cells per well, free uptake, 2,000 nM oligonucleotide, approx. 48 hours; primer probe set RTS36584; Yap1 mRNA normalized to RIBOGREEN, percent of untreated control
row,Substance,YAP1 (% UTC)
1,958732 (antisense kA*kG*k[5mC]*dA*d[5mC]*dG*dG*dT*dG*dT*dA*dG*d[5mC]*kT*kT*kT) [Compound 958732],60 % UTC
2,958582 (kA*kA*kT*d[5mC]*dT*dG*d[5mC]*dT*dG*dA*dT*dA*dT*kA*kT*kA; antisense) [Compound 958582],21 % UTC
3,958507 (kG*kA*kG*d[5mC]*dA*dG*dA*dT*dA*dA*dT*d[5mC]*dG*kA*kG*kA; antisense) [Compound 958507],6 % UTC
4,958817 (kT*kG*k[5mC]*d[5mC]*dA*dG*dG*dT*dA*dA*dG*d[5mC]*d[5mC]*kA*k[5mC]*kA; antisense) [Compound 958817],30 % UTC

# Same assay, conditions: Table 11; A-431 cells, 5,000 cells per well, free uptake, 2,000 nM oligonucleotide, approx. 48 hours; primer probe set RTS36584; Yap1 mRNA normalized to RIBOGREEN, percent of untreated control
row,Substance,YAP1 (% UTC)
1,958808 (kA*kG*k[5mC]*dG*dA*dT*dT*dG*dG*d[5mC]*d[5mC]*dT*d[5mC]*k[5mC]*k[5mC]*kA; antisense) [Compound 958808],59 % UTC
2,958683 (kT*kA*kT*dT*dG*dT*dG*d[5mC]*dT*dG*d[5mC]*dA*dT*k[5mC]*kT*k[5mC]; antisense) [Compound 958683],16 % UTC
3,958528 (kA*kG*kT*d[5mC]*dT*dT*dG*dT*dA*dA*dG*dT*dA*kA*kG*kA; antisense) [Compound 958528],18 % UTC
4,958463 (antisense k[5mC]*k[5mC]*kT*dG*dA*dG*dA*d[5mC]*dA*dT*d[5mC]*d[5mC]*d[5mC]*kG*kG*kG) [Compound 958463],63 % UTC
5,958793 (antisense k[5mC]*k[5mC]*kG*d[5mC]*dA*dT*dT*dG*d[5mC]*d[5mC]*dT*dA*dA*kG*kA*kG) [Compound 958793],9 % UTC

# Same assay, conditions: Table 12; A-431 cells, 5,000 cells per well, free uptake, 2,000 nM modified oligonucleotide, approx. 48 hours; RTS36584; normalized to RIBOGREEN; Yap1 mRNA relative to untreated control cells
row,Substance,YAP1 (% UTC)
1,958509 (kA*kT*kG*dT*dT*dA*dT*dG*dT*dT*dT*dG*dG*kG*kT*kG; antisense) [Compound 958509],4 % UTC
2,958764 (antisense kT*kG*kG*dG*dT*d[5mC]*dT*d[5mC]*dT*dT*dG*dA*dT*kT*kT*k[5mC]) [Compound 958764],34 % UTC

# Same assay, conditions: Table 13; A-431 cells, 5,000 cells per well, free uptake, 2,000 nM modified oligonucleotide, approx. 48 hours; RTS36584; normalized to RIBOGREEN; Yap1 mRNA relative to untreated control cells
row,Substance,YAP1 (% UTC)
1,958470 (antisense kT*kA*kG*dA*dT*d[5mC]*d[5mC]*dT*dT*d[5mC]*dA*d[5mC]*dA*kG*kA*kT) [Compound 958470],18 % UTC
2,958475 (antisense k[5mC]*k[5mC]*kG*dG*dT*dG*d[5mC]*dA*dT*dG*dT*dG*dT*k[5mC]*kT*k[5mC]) [Compound 958475],37 % UTC
3,958765 (antisense kG*kT*kA*d[5mC]*dA*dG*dG*dA*dG*dA*dG*dA*dT*kT*kG*k[5mC]) [Compound 958765],37 % UTC

# Same assay, conditions: Table 26; Yap1 mRNA by 3-10-3 cEt gapmers targeting SEQ ID NO.: 1, and 2; percent of untreated control
row,Substance,YAP1 (% UTC)
1,1075660 (antisense k[5mC]*kA*kA*dA*dG*dT*dA*dA*dA*dA*dA*dA*d[5mC]*kG*kG*kT) [compound 1075660],72 % UTC

# Same assay, conditions: Table 27; Yap1 mRNA by 3-10-3 cEt gapmers targeting SEQ ID NO.: 1, and 2; percent of untreated control
row,Substance,YAP1 (% UTC)
1,1076301 (kG*kT*kA*dT*dA*dA*dG*dA*d[5mC]*d[5mC]*dT*dT*dG*kG*kG*kA; antisense) [compound 1076301],34 % UTC
2,1075405 (antisense k[5mC]*kT*kA*dT*dA*dT*dA*dA*d[5mC]*d[5mC]*dT*dG*dA*kA*k[5mC]*kT) [compound 1075405],84 % UTC
3,1075661 (antisense kG*kA*kA*dT*dA*dG*dG*dA*dT*dA*d[5mC]*dA*dA*kG*k[5mC]*kA) [compound 1075661],74 % UTC
4,1074605 (DNA kT*k[5mC]*kA*dA*d[5mC]*dT*dA*d[5mC]*d[5mC]*dA*dA*dT*dA*kT*kA*k[5mC]) [compound 1074605],20 % UTC

# Same assay, conditions: Table 28; Yap1 mRNA as percent of untreated control; 3-10-3 cEt gapmers targeting SEQ ID NO.: 1, and 2
row,Substance,YAP1 (% UTC)
1,1074158 (kG*kA*kG*d[5mC]*dG*dA*dG*dG*dG*d[5mC]*dT*dA*d[5mC]*kG*k[5mC]*k[5mC]; antisense) [compound 1074158],72 % UTC
2,1076334 (antisense kA*k[5mC]*k[5mC]*dT*dA*dT*dA*dA*dG*dG*dA*dA*dT*kG*kG*k[5mC]) [compound 1076334],108 % UTC
3,1075150 (kA*kG*k[5mC]*dG*dG*dA*dA*dA*dA*dA*dA*d[5mC]*dA*k[5mC]*k[5mC]*kT; antisense) [compound 1075150],35 % UTC
4,1074734 (kT*kG*k[5mC]*d[5mC]*dA*dG*dG*dT*dA*dT*d[5mC]*dA*d[5mC]*kA*kG*kT; antisense) [compound 1074734],51 % UTC
5,1076110 (k[5mC]*kT*kT*dT*dA*d[5mC]*d[5mC]*dT*dA*dA*dA*dT*dG*kT*kT*kG; antisense) [compound 1076110],53 % UTC

# Same assay, conditions: Table 29; Yap1 mRNA as percent of untreated control; 3-10-3 cEt gapmers targeting SEQ ID NO.: 1, and 2
row,Substance,YAP1 (% UTC)
1,1075439 (antisense kA*kA*kT*dT*dA*dG*dA*dG*dA*dT*dA*dT*dG*kG*kA*k[5mC]) [compound 1075439],77 % UTC
2,1076303 (k[5mC]*kT*kA*dA*dT*dA*dA*dG*d[5mC]*d[5mC]*dT*d[5mC]*dA*k[5mC]*k[5mC]*kT; antisense) [compound 1076303],34 % UTC
3,1074831 (k[5mC]*kG*kA*dG*dG*dA*dT*dA*dA*dA*dA*dT*d[5mC]*k[5mC]*kA*k[5mC]; antisense) [compound 1074831],35 % UTC

# Same assay, conditions: Table 34; Yap1 mRNA as percent of untreated control; 3-10-3 cEt gapmers targeting SEQ ID NO: 1 and 2; single dose
row,Substance,YAP1 (% UTC)
1,1074164 (k[5mC]*k[5mC]*kA*dG*dG*d[5mC]*dG*dA*dG*d[5mC]*dG*dA*dG*kG*kG*k[5mC]; antisense) [compound 1074164],135 % UTC
2,1075188 (kA*kG*kT*d[5mC]*dA*dA*d[5mC]*d[5mC]*dT*dG*dT*dA*dA*kT*kT*kA; antisense) [compound 1075188],14 % UTC
3,1076564 (kT*kA*kA*dA*dG*dT*dA*dA*dT*dG*d[5mC]*dT*dA*k[5mC]*kA*kG; antisense) [compound 1076564],77 % UTC
4,1076116 (kG*kA*kA*dA*dA*dT*dA*dG*d[5mC]*d[5mC]*d[5mC]*dA*dT*kT*kA*kG; antisense) [compound 1076116],25 % UTC
5,1075540 (kG*k[5mC]*kT*dT*dA*dA*dG*dG*dG*dA*dT*dG*dG*kA*kA*k[5mC]; antisense) [compound 1075540],78 % UTC
6,1075572 (antisense k[5mC]*kA*kA*dT*dT*dT*dA*dA*d[5mC]*dT*dG*dT*dT*kA*k[5mC]*kA) [compound 1075572],84 % UTC

# Same assay, conditions: Table 35; Yap1 mRNA as percent of untreated control; 3-10-3 cEt gapmers targeting SEQ ID NO: 1 and 2; single dose
row,Substance,YAP1 (% UTC)
1,1074645 (antisense kA*kA*kT*dT*dG*dA*dA*dG*dG*dG*d[5mC]*d[5mC]*dA*kA*kA*kA) [compound 1074645],81 % UTC
2,1076373 (antisense kA*kA*k[5mC]*dG*dG*dA*dT*dA*dT*dA*d[5mC]*dA*dA*kT*kA*kA) [compound 1076373],10 % UTC
3,1076117 (k[5mC]*kT*kA*dG*dA*dA*dA*dA*dT*dA*dG*d[5mC]*d[5mC]*k[5mC]*kA*kT; antisense) [compound 1076117],15 % UTC
4,1076245 (k[5mC]*k[5mC]*kT*dA*dA*dA*dA*dA*dA*d[5mC]*dT*dA*dG*kT*kG*kA; antisense) [compound 1076245],101 % UTC
5,1076181 (kT*kA*kT*dA*dA*dT*dT*dA*dG*d[5mC]*d[5mC]*dA*dA*k[5mC]*k[5mC]*kA; antisense) [compound 1076181],26 % UTC
